According to patent US20210379040A1, “COMBINATION TREATMENT OF LIVER DISORDERS” (Terns Pharmaceuticals, Inc., priority 2020, published 2021):
Marks after values point to notes of the source that are not given here.

What was measured:
[1] = Tissue distribution after 2 mg/kg intravenous infusion; type: in vivo; details: SD rats, with 100 μM rifampin
Procedure: The tested compounds were administered to SD rats (n=3 per compound) by way of 30 minute intravenous infusion at 2 mg/kg. Blood, liver, kidney, and lung tissue samples were collected from the rats to determine a tissue/plasma ratio.

[2] = Pharmacokinetics assay, rat; type: in vivo, Sprague-Dawley (SD) rats; details: plasma, Sprague-Dawley Rat
Source text: (§1) Results are shown in FIG. 1A (IV administration) and FIG. 1B (oral administration), and in Table 2. […] Smaller Vdss in monkeys is correlated with higher plasma protein binding.

[3] = PK/PD profile, 1 mg/kg oral for 7 consecutive days; type: in vivo; details: cynomolgus monkeys; for Cmax / Tmax / AUC(0-t): cynomolgus monkey, plasma, po, 1 mg/kg, oral 1 mg/kg daily; for AUC(0-t): read-out: AUC0-24
[4] = system: liver gene expression (lipid metabolism and fatty acid transport genes); test: Rat CDHFD+NaNO2 NASH model: liver whole transcriptome RNAseq (DEGs); type: in vivo, male Wistar rats; details: Compound 2 25 mg/kg, Compound 1 3 mg/kg
Procedure: Animal handling: After arrival, the rats were left for a 2-week acclimation period, during which they were accustomed to the animal facility staff and trained on the procedure of oral gavage. […] Rats were then treated with test compounds for an additional 8 weeks while on CDHFD. […] Final Sacrifice: Half of the animals of each treatment group were terminated on day 84. The other half of the animals in each group were terminated on the following day, day 85. On the day of sacrifice the animals were fasted for 2 hours and received a final treatment with the respective test substance. After the final compound treatment, the animals had no more access to food until sacrifice. At 4 hours after the last administration all animals were sacrificed and livers were sampled for further analysis. Sampling and analysis: Small liver pieces were harvested into RNAlater (Thermo Fisher Scientific Dreieich Germany) and stored at −20° C. prior to RNA sequencing (RNAseq) at MedGenome Inc. RNAseq analysis was performed on liver tissue by Illumina sequencing using standard methodologies. […] Alignment was performed using STAR (v2.7.3a) aligner and reads mapping to ribosomal and mitochondrial genome were removed prior to alignment. Raw read counts were estimated using HTSeq (v0.11.1) and normalized using DESeq2 (v2.22.2). Differentially expressed genes (DEGs) were determined using DESeq2 (R Bioconductor package). […]

[5] = Clinical study, First Study (14 days, healthy volunteers); type: in vivo; details: healthy human volunteers, oral daily 5, 75, 200 or 400 mg for 14 days
[6] = system: mouse hepatocytes; test: In vitro metabolic stability in cryopreserved hepatocytes (mouse); type: in vitro ADME
Procedure: (§2) In vitro half-life values were determined and scaled to predict hepatic clearance (CLpred) and hepatic extraction using the well-stirred liver model with no correction for plasma protein as described in Obach et al., The Prediction of Human Pharmacokinetic Parameters from Preclinical and In Vitro Metabolism Data, J. of Pharmacology and Experimental Therapeutics, vol. 283, no. 1, pp. 46-58 (1997).

[7] = system: monkey hepatocytes; test: In vitro metabolic stability in cryopreserved hepatocytes (monkey); type: in vitro ADME; details: Cynomolgus Monkey
Procedure: as §2

[8] = Metabolism and excretion of radiolabeled (14C) compound; type: in vivo; details: SD rats, bile duct intact or cannulated, orally 5 mg/kg or intravenously 2 mg/kg
Procedure: Blood, bile, feces, and urine samples were collected from each rat for up to 168 hours.

[9] = Pharmacokinetics assay, monkey; type: in vivo, cynomolgus monkeys; details: plasma, iv, Cynomolgus Monkey, intravenously 0.3 mg/kg
Source text: as §1

[10] = system: dog hepatocytes; test: In vitro metabolic stability in cryopreserved hepatocytes (dog); type: in vitro ADME; details: Beagle Dog
Procedure: as §2

[11] = PK/PD profile, single oral dose; type: in vivo; details: cynomolgus monkey, plasma, cynomolgus monkeys; for AUC(0-t): read-out: AUC0-24
Procedure: Pharmacokinetics data is presented in Table 3, and were determined by non-compartmental analysis.

[12] = Single-ascending dose clinical trial: plasma PK and safety
Procedure: SSAO inhibition was determined by measuring relative reductions in plasma H2O2 generation after addition of an exogenous substrate (benzylamine). […] Safety was assessed for 7 (±3) days after dosing.
Plasma PK parameters were determined by non-compartmental analysis. […] Percent change in total amine oxidase activity was determined relative to the corresponding pre-dose (baseline) samples.

[13] = Multiple once daily dose study: plasma PK and safety; type: in vivo, human
Procedure: 3 groups of 8 healthy participants were randomized to receive multiple once daily (QD) doses of Compound 2 or matching placebo in a 3:1 ratio for 7 days (1 mg and 4 mg) or 14 days (10 mg). Plasma levels of Compound 2 and PD biomarkers (plasma amine oxidase activity and methylamine levels) were determined at pre-dose and various timepoints post-dose. Safety was assessed for up to 14 days after last dose.

Question: For `Cn1cc(C(=O)O)c2ccc(N3CCC(OCc4c(-c5c(Cl)cccc5Cl)noc4C4CC4)CC3)cc21` [Compound 1], which “change in distribution to the liver on co-administration with rifampin” value [1] is on record?
Answer: does not result in a significant change

Question: What about the clearance ([2]; iv, intravenously 1 mg/kg) of the same compound?
Answer: 42.5 mL/min/kg

Question: And the half-life ([2]; iv, intravenously 1 mg/kg, read-out: IV Terminal t1/2 (converted))?
Answer: 2.45 h

Question: What about the Vd ([2]; iv, intravenously 1 mg/kg, read-out: Vdss) of the same compound?
Answer: 1.31 L/kg

Question: And the bioavailability ([2]; po, orally 10 mg/kg)?
Answer: 21%

Question: What about the Cmax ([3]; Day 1) of the same compound?
Answer: 257 ± 124 ng/mL

Question: What about the Tmax ([3]; Day 1) of the same compound?
Answer: 1.83 ± 1.17 h

Question: What about the AUC(0-t) ([3]; Day 1) of the same compound?
Answer: 1000 ± 419 ng·h/mL

Question: What about the Cmax ([3]; Day 7) of the same compound?
Answer: 221 ± 121 ng/mL

Question: What about the Tmax ([3]; Day 7) of the same compound?
Answer: 1.25 ± 0.61 h

Question: And the AUC(0-t) ([3]; Day 7)?
Answer: 858 ± 425 ng·h/mL

Question: And the “suppression of the pharmacodynamics biomarker 7AC4” value ([3]; 1 mg/kg oral, 7 consecutive days)?
Answer: sustained suppression

Question: And the “Ppargc1a differential gene expression relative to vehicle control” value [4]?
Answer: 0.25 log2-fold change

Question: What about the incidences of pruritus [5] of the same compound?
Answer: no incidences of pruritus were observed

Question: And the “Hepatic Extraction” value [6]?
Answer: 80.7 ± 1.02%

Question: And the “In vitro Metabolic CLpred” value ([6]; well-stirred liver model)?
Answer: 72.7 ± 1 mL/min/kg

Question: What about the “Hepatic Extraction” value [7] of the same compound?
Answer: 64.4 ± 0.28%

Question: And the “In vitro Metabolic CLpred” value ([7]; well-stirred liver model)?
Answer: 28 ± 0.17 mL/min/kg

Question: And the “metabolism and major elimination pathway” value [8]?
Answer: metabolized into an acyl glucuronide metabolite prior to biliary excretion

Question: What about the clearance [9] of the same compound?
Answer: 5 mL/min/kg

Question: What about the half-life ([9]; read-out: IV Terminal t1/2 (converted)) of the same compound?
Answer: 1.32 h

Question: And the Vd ([9]; read-out: Vdss)?
Answer: 0.6 L/kg

Question: What about the “Hepatic Extraction” value [10] of the same compound?
Answer: 71.0 ± 2.49%

Question: And the “In vitro Metabolic CLpred” value ([10]; well-stirred liver model)?
Answer: 22 ± 0.83 mL/min/kg

Question: And the Cmax ([11]; oral 0.3 mg/kg)?
Answer: 58.8 ± 30.2 ng/mL

Question: What about the Tmax ([11]; oral 0.3 mg/kg) of the same compound?
Answer: 2.17 ± 1.47 h

Question: What about the AUC(0-t) ([11]; oral 0.3 mg/kg) of the same compound?
Answer: 196 ± 64 ng·h/mL

Question: And the Cmax ([11]; oral 1 mg/kg)?
Answer: 257 ± 124 ng/mL

Question: What about the Tmax ([11]; oral 1 mg/kg) of the same compound?
Answer: 1.83 ± 1.17 h

Question: And the AUC(0-t) ([11]; oral 1 mg/kg)?
Answer: 1000 ± 419 ng·h/mL

Question: What about the Cmax ([11]; oral 5 mg/kg) of the same compound?
Answer: 709 ± 458 ng/mL

Question: What about the Tmax ([11]; oral 5 mg/kg) of the same compound?
Answer: 2.25 ± 1.47 h

Question: And the AUC(0-t) ([11]; oral 5 mg/kg)?
Answer: 2720 ± 1500 ng·h/mL

Question: Which “plasma PK exposure increase with dose” value ([12]; between the 3 and 10 mg dose levels, single oral dose) does the source give for `COC1CCN(c2ncc(OC/C(=C/F)CN)cn2)CC1` [Compound 2] here?
Answer: greater than dose proportional

Question: And the tolerability ([12]; doses 1, 3, 6, and 10 mg, single dose)?
Answer: well tolerated

Question: What about the “adverse events or laboratory abnormalities” value ([12]; healthy humans, single oral dose 1-10 mg) of the same compound?
Answer: No clinically relevant adverse events or laboratory abnormalities were reported

Question: What about the half-life ([12]; male, human, plasma, po, 10 mg) of the same compound?
Answer: 1 to 3 h

Question: And the “Ppargc1a differential gene expression relative to vehicle control” value [4]?
Answer: 0.51* log2-fold change

Question: And the “plasma PK exposure increases between dose groups” value ([13]; Day 1, QD 1, 4, 10 mg)?
Answer: greater than dose proportional

Question: What about the half-life versus dose ([13]; QD 1, 4, 10 mg) of the same compound?
Answer: increased with dose

Question: And the “accumulation after multiple QD doses” value ([13]; each dose level)?
Answer: significant accumulation

Question: What about the “adverse events or laboratory abnormalities” value ([13]; healthy participants, QD 1 mg and 4 mg for 7 days or 10 mg for 14 days) of the same compound?
Answer: No clinically relevant adverse events or laboratory abnormalities were reported

Question: And the “time to steady state” value ([13]; highest dose cohort (10 mg QD))?
Answer: 7 days

Question: And the safety and tolerability ([13]; up to 10 mg QD for 14 days)?
Answer: safe and well tolerated
